According to patent US4450269A, “Mono-5-substituted-3-chloro-4H-1,2,6-thiadiazin-4-one antifungal agents” (FMC Corporation, priority 1980, dated 1984):
Where a name gives a salt, the structure may show the parent alone.

Experiments:
Rhizoctonia solani = experiment: Mycelial growth test; format: cell-based; conditions: RS; for Percent Fungus Growth Inhibition: 72 hours; for inhibition at 5 ppm / inhibition at 10 ppm / inhibition at 20 ppm / inhibition at 40 ppm: Rhizoctonia solani, 72 h, read-out: Percent Fungus Growth Inhibition
Excerpt: | RS = Rhizoctonia solani

Uromyces phaseoli = experiment: whole plant or invertebrate; conditions: foliar, read-out: Percent Disease Control, foliar, bean rust

Row | Compound | Percent Fungus Growth Inhibition (Rhizoctonia solani; 5 ppm) [%] | Percent Fungus Growth Inhibition (Rhizoctonia solani; 10 ppm) [%] | Percent Fungus Growth Inhibition (Rhizoctonia solani; 20 ppm) [%] | Percent Fungus Growth Inhibition (Rhizoctonia solani; 40 ppm) [%] | inhibition at 5 ppm (Rhizoctonia solani; 5 ppm) [%] | inhibition at 10 ppm (Rhizoctonia solani; 10 ppm) [%] | inhibition at 20 ppm (Rhizoctonia solani; 20 ppm) [%] | inhibition at 40 ppm (Rhizoctonia solani; 40 ppm) [%] | pest or weed control at 150 ppm (Uromyces phaseoli) [%] | Percent Fungus Growth Inhibition (Rhizoctonia solani; 10 ppm, hydrochloride) [%] | Percent Fungus Growth Inhibition (Rhizoctonia solani; 20 ppm, hydrochloride) [%] | Percent Fungus Growth Inhibition (Rhizoctonia solani; 40 ppm, hydrochloride) [%]
1 | 3-chloro-5-(bromophenoxy)-4H-1,2,6-thiadiazin-4-one [Compound 33] | 31 | 42 | 64 | 100 | – | – | – | – | – | – | – | –
2 | 3-chloro-5-[methylaminocarbonyloxy)phenoxyl]-4H-1,2,6-thiadiazin-4-one [Compound 36] | 0 | 4 | 42 | 87 | – | – | – | – | – | – | – | –
3 | O=c1c(Cl)nsnc1Oc1ccccc1 [Compound 2, 3-chloro-5-phenoxy-4H--1,2,6-thiadiazin-4-one] | – | – | – | – | 0 | 42 | 100 | 78 | 100 | – | – | –
4 | Cc1ccc(Oc2nsnc(Cl)c2=O)cc1 [Compound 3, 3-chloro-5-(4-methylphenoxy)-4H--1,2,6-thiadiazin-4-one] | – | – | – | – | 0 | 20 | 56 | 100 | 100 | – | – | –
5 | CC(C)(C)c1ccc(Oc2nsnc(Cl)c2=O)cc1 [Compound 4, 3-chloro-5-(4-tert-butylphnoxy)-4H--1,2,6-thiadiazin-4-one] | – | – | – | – | 0 | 0 | 0 | 0 | 100 | – | – | –
6 | COc1ccc(Oc2nsnc(Cl)c2=O)cc1 [Compound 5, 3-chloro-5-(4-methoxyphenoxy)4H--1,2,6-thiadiazin-4-one] | – | – | – | – | 0 | 0 | 38 | 64 | 100 | – | – | –
7 | CCCCOc1ccc(Oc2nsnc(Cl)c2=O)cc1 [Compound 6, 3-chloro-5-(4-n-butoxyphenoxy)-4H--1,2,6-thiadiazin-4-one] | – | – | – | – | 0 | 0 | 0 | 20 | 0 | – | – | –
8 | CCOC(=O)c1ccc(Oc2nsnc(Cl)c2=O)cc1 [Compound 7, 3-chloro-5-(4-ethoxycarbonylphenoxy)-4H--1,2,6-thiadiazin-4-one] | – | – | – | – | 7 | 33 | 53 | 76 | 100 | – | – | –
9 | CC(=O)Nc1ccc(Oc2nsnc(Cl)c2=O)cc1 [Compound 8, 5-(4-acetylaminophenoxy)-3-chloro-4H--1,2,6-thiadiazin-4-one] | – | – | – | – | 0 | 0 | 7 | 42 | 100 | – | – | –
10 | O=c1c(Cl)nsnc1Oc1ccc([N+](=O)[O-])cc1 [Compound 9, 3-chloro-5-(4-nitrophenoxy)-4H--1,2,6-thiadiazin-4-one] | – | – | – | – | 13 | 42 | 69 | 78 | 98 | – | – | –
11 | N#Cc1ccc(Oc2nsnc(Cl)c2=O)cc1 [Compound 10, 3-chloro-5-(4-cyanophenoxy)-4H--1,2,6-thiadiazin-4-one] | – | – | – | – | 9 | 13 | 100 | 100 | 100 | – | – | –
12 | O=c1c(Cl)nsnc1Oc1ccc(F)cc1 [Compound 11, 3-chloro-5-(4-fluorophenoxy)-4H--1,2,6-thiadiazin-4-one] | – | – | – | – | 0 | 38 | 76 | 91 | 0 | – | – | –
13 | O=c1c(Cl)nsnc1Oc1ccc(Cl)cc1 [Compound 12, 3-chloro-5-(4-chlorophenoxy)-4H--1,2,6-thiadiazin-4-one] | – | – | – | – | 20 | 58 | 64 | 100 | 100 | – | – | –
14 | O=c1c(Cl)nsnc1Oc1cccc(Cl)c1 [Compound 13, 3-chloro-5-(3-chlorophenoxy)-4H--1,2,6-thiadiazin-4-one] | – | – | – | – | 24 | 53 | 69 | 76 | 100 | – | – | –
15 | O=c1c(Cl)nsnc1Oc1ccccc1Cl [Compound 14, 3-chloro-5-(2-chlorophenoxy)-4H--1,2,6-thiadiazin-4-one] | – | – | – | – | 53 | 56 | 76 | 91 | 0 | – | – | –
16 | O=c1c(Cl)nsnc1Oc1ccc(Br)cc1 [Compound 15, 3-chloro-5-(4-bromophenoxy)-4H--1,2,6-thiadiazin-4-one] | – | – | – | – | 13 | 38 | 38 | 53 | 100 | – | – | –
17 | O=c1c(Cl)nsnc1Oc1ccc(Cl)c(Cl)c1 [Compound 16, 3-chloro-5-(3,4-dichlorophenoxy)-4H--1,2,6-thiadiazin-4-one] | – | – | – | – | 29 | 31 | 31 | 69 | 90 | – | – | –
18 | O=c1c(Cl)nsnc1Oc1ccc(Cl)cc1Cl [Compound 17, 3-chloro-5-(2,4-dichlorophenoxy)-4H--1,2,6-thiadiazin-4-one] | – | – | – | – | 40 | 53 | 76 | 76 | 100 | – | – | –

Row | Compound | Percent Fungus Growth Inhibition (Rhizoctonia solani; 5 ppm) [%] | Percent Fungus Growth Inhibition (Rhizoctonia solani; 10 ppm) [%] | Percent Fungus Growth Inhibition (Rhizoctonia solani; 20 ppm) [%] | Percent Fungus Growth Inhibition (Rhizoctonia solani; 40 ppm) [%] | inhibition at 5 ppm (Rhizoctonia solani; 5 ppm) [%] | inhibition at 10 ppm (Rhizoctonia solani; 10 ppm) [%] | inhibition at 20 ppm (Rhizoctonia solani; 20 ppm) [%] | inhibition at 40 ppm (Rhizoctonia solani; 40 ppm) [%] | pest or weed control at 150 ppm (Uromyces phaseoli) [%] | Percent Fungus Growth Inhibition (Rhizoctonia solani; 10 ppm, hydrochloride) [%] | Percent Fungus Growth Inhibition (Rhizoctonia solani; 20 ppm, hydrochloride) [%] | Percent Fungus Growth Inhibition (Rhizoctonia solani; 40 ppm, hydrochloride) [%]
19 | O=c1c(Cl)nsnc1Oc1c(Cl)cccc1Cl [Compound 18, 3-chloro-5-(2,6-dichlorophenoxy)-4H--1,2,6-thiadiazin-4-one] | – | – | – | – | 42 | 56 | 76 | 87 | 100 | – | – | –
20 | O=c1c(Cl)nsnc1Oc1cccc(Cl)c1Cl [Compound 19, 3-chloro-5-(2,3-dichlorophenoxy)-4H--1,2,6-thiadiazin-4-one] | – | – | – | – | 29 | 47 | 69 | 82 | 0 | – | – | –
21 | O=c1c(Cl)nsnc1Oc1cc(Cl)cc(Cl)c1 [Compound 20, 3-chloro-5-(3,5-dichlorophenoxy)-4H--1,2,6-thiadiazin-4-one] | – | – | – | – | 51 | 58 | 76 | 78 | 100 | – | – | –
22 | Cc1cccc(Oc2nsnc(Cl)c2=O)c1 [Compound 21, 3-chloro-5-(3-methylphenoxy)-4H--1,2,6-thiadiazin-4-one] | – | – | – | – | 53 | 64 | 87 | 100 | 100 | – | – | –
23 | Cc1ccccc1Oc1nsnc(Cl)c1=O [Compound 22, 3-chloro-5-(2-methylphenoxy)-4H--1,2,6-thiadiazin-4-one] | – | – | – | – | 42 | 62 | 91 | 100 | 100 | – | – | –
24 | Cc1ccc(Oc2nsnc(Cl)c2=O)c(C)c1 [Compound 23, 3-chloro-5-(2,4-dimethylphenoxy)-4H--1,2,6-thiadiazin-4-one] | – | – | – | – | 20 | 53 | 73 | 78 | 100 | – | – | –
25 | Cc1cccc(C)c1Oc1nsnc(Cl)c1=O [Compound 24, 3-chloro-5-(2,6-dimethylphenoxy)-4H--1,2,6-thiadiazin-4-one] | – | – | – | – | 20 | 64 | 82 | 100 | 100 | – | – | –
26 | Cc1cc(C)cc(Oc2nsnc(Cl)c2=O)c1 [Compound 25, 3-chloro-5-(3,5-dimethylphenoxy)-4H--1,2,6-thiadiazin-4-one] | – | – | – | – | 20 | 64 | 80 | 78 | 100 | – | – | –
27 | Nc1ccc(Oc2nsnc(Cl)c2=O)cc1 [Compound 26, 5-(4-aminophenoxy)-3-chloro-4H--1,2,6-thiadiazin-4-one] | – | 53 | – | – | 0 | – | 42 | 76 | 0 | – | – | –
28 | Nc1ccc(Oc2nsnc(Cl)c2=O)cc1 [Compound 27, 5-(4-aminophenoxy)-3-chloro-4H--1,2,6-thiadiazine-4-one hydrochloride] | – | – | – | – | – | – | – | – | – | 31 | 24 | 64
29 | CNC(=O)Nc1ccc(Oc2nsnc(Cl)c2=O)cc1 [Compound 28, 3-chloro-5-[4-(3-methylureido)-phenoxy]-4H--1,2,6-thiadiazin-4-one] | – | – | – | – | 20 | 47 | 24 | 47 | 0 | – | – | –
30 | O=C(Nc1ccccc1)Nc1ccc(Oc2nsnc(Cl)c2=O)cc1 [Compound 29, 3-chloro-5-[4-(3-phenylureido)-phenoxy]-4H--1,2,6-thiadiazin-4-one] | – | – | – | – | 0 | 31 | 0 | 29 | 0 | – | – | –
31 | O=c1c(Cl)nsnc1Oc1c(Cl)cc(Cl)cc1Cl [Compound 30, 3-chloro-5-(2,4,6-trichlorophenoxy)-4H--1,2,6-thiadiazin-4-one] | – | – | – | – | 42 | 62 | 69 | 80 | 100 | – | – | –
32 | O=c1c(Cl)nsnc1Oc1c(Cl)c(Cl)c(Cl)c(Cl)c1Cl [Compound 31, 3-chloro-5-(pentachlorophenoxy)-4H--1,2,6-thiadiazine-4-one] | – | – | – | – | 53 | 69 | 73 | 76 | 0 | – | – | –
33 | O=c1c(Cl)nsnc1Oc1cccc2ccccc12 [Compound 32, 3-chloro-5(1-naphthoxy)-4H-1,2,6-thiadiazin-4-one] | – | – | – | – | 76 | 42 | 69 | 73 | 90 | – | – | –
34 | O=c1c(Cl)nsnc1Oc1ccccc1Br [Compound 34, 3-chloro-5-(2-bromophenoxy)-4H-1,2,6,-thiadiazin-4-one] | – | – | – | – | 24 | 64 | 76 | 100 | 85 | – | – | –
35 | O=c1c(Cl)nsnc1Oc1ccc(O)cc1 [Compound 35, 3-chloro-5-(4-hydroxyphenoxy)-4H-1,2,6-thiadiazin-4-one] | – | – | – | – | 0 | 7 | 44 | 76 | 100 | – | – | –
36 | O=C(Nc1ccccc1)Oc1ccc(Oc2nsnc(Cl)c2=O)cc1 [Compound 37, 3-chloro-5-[4-(phenylaminocarbonyloxy)phenoxy]-4H-1,2,6,-thiadiazin-4-one] | – | – | – | – | 11 | 42 | 31 | 51 | 100 | – | – | –
